Counter-ions that a name gives are not always drawn. Like-named read-outs stand apart in the source and are kept apart here.

One data set concerns the target T1, ISP1-ISP2 enzyme complex (Mus musculus, UniProt Q924N9+Q99MS4).
T1 construct: The native ISP enzyme complex was purified from mouse uterine tissue homogenates; from tissue; host or cells: uterus of pregnant CD1 mice (4.5-6.5 dpc)
As to the kind of experiment: Inhibition of proteolytic activity of ISP enzyme complex, chromogenic assay with BAPNA as substrate. It counts as biochemical. The conditions noted are these: for Ki: from IC50 by Cheng and Prusoff equation, read-out: Dissociation Constant (Ki); for Influence on ISP activity: general trypsin inhibitors; for Affinity for ISP enzyme: Fig. 4B, compared to Benzamidine. Here is the method: Many general serine proteinase inhibitors were tested in order to identify suitable ISP inhibitors when BAPNA was used as a substrate. These included Benzamidine hydrochloride, 4-(Amidino-Phenyl)-Methane-Sulfonyl Fluoride (APMSF), L-1 Chloro-3- [4-tosyl-amido]-7-amino-2-heptanone. HCl (TLCK), Trypsin Soybean Inhibitor (TSI), Bis (5-amidino-2-benzimadozolyl) methane (BABIM), Gabexate mesylate, Nafamostat, and the kunitz family serpins Uterine Plasmin-Trypsin Inhibitor (UPTI) and Secretary Leukocyte proteinase inhibitor (SLPI).
Only inhibitors specific for trypsin-like serine proteinases were able to inhibit the ISPs (Fig. 4B and Additional file 2. Table 1). IC50 (concentration of an inhibitor capable of inhibiting the enzyme activity by 50%) values were obtained by plotting inhibition data, which were extrapolated into Cheng and Prusoff's equation to derive the dissociation constant (Ki).
Chromogenic assays were carried out using the p-Nitroanilide conjugated peptidic substrates. The reaction conditions used were: 4 mM BAPNA (substrate), in 25 mM Tris.Cl (pH 8.0) and 10 mM EDTA reaction buffer, in a total reaction volume of 0.5 mL. The reactions were carried out at room temperature in a glass cuvette (1 cm path length), and scanned at wavelength maxima of 405 nm using a spectrophotometer. 1 Unit of enzyme is defined as enzyme activity sufficient for the breakdown of 1 μM of substrate/ml/min. The affinity of ISP complex with various substrates was characterized by measuring enzyme activity at differing substrate concentrations and plotting enzyme activity [V] vs. substrate concentration [S]. The Km was calculated using the Michaelis Menton equation (Km = [S] at 1/2 Vmax).
IC50 values were derived by plotting enzyme activity (V) vs. inhibitor concentration [I]. Dissociation constants (Ki) values for different inhibitors were determined by using the Cheng and Prusoff equation (Ki = IC50/1 + [S]/Km).

For a further data set, the system named is blastocysts. As to the kind of experiment: In vitro embryo hatching. The format is cell-based. The text has this:
In order to define a physiological role for the ISPs, the effect of inhibiting ISP activity upon embryo hatching, outgrowth (Fig. 6 and 7) and implantation (Table 1) was investigated. Blastocysts were first cultured in the presence or absence of anti-ISP mAbs or selected inhibitors. […] Similarly, the effect of varying concentrations of anti-ISP1 and anti-ISP2 mAbs was studied both individually and together (Fig. 7C, E and 7G).
(§1) Blastocysts were collected by flushing the uteri of day 3.5 post coetum dams with M2 (Sigma Aldrich and Co.) medium. For in vitro hatching experiments, blastocysts were cultured in micro drops of Knockout DMEM medium (Invitrogen) with serum replacement in a drop under mineral oil at 37°C and 5% CO2 [27]. For in vitro embryo outgrowth onto extracellular matrix, hatched blastocysts were cultured for an additional 48 h at 37°C and 5% CO2 in DMEM plus 5% (v/v) fetal bovine serum on […] Nunc tissue culture dishes coated with extracellular matrix derived from 10% Triton X-100 (v/v) treated mouse embryo fibroblasts. Inhibitors or anti-ISP mAbs were mixed into media at stated concentrations. For antibody inhibition experiments, anti-ISP hybridoma supernatants (or negative control supernatants) were mixed with embryo culture media at an appropriate concentration. For inhibitor experiments, negative controls contained the medium used to dispense Gabexate mesylate.

For data set [1], the system named is hatched blastocysts. As to the kind of experiment: In vitro embryo outgrowth onto extracellular matrix. The format is cell-based. The conditions noted are these: for Embryo death: 48 hrs.
From the text: Implantation was simulated in vitro by growth of the hatched blastocysts in culture plates coated with the extracellular matrix derived from mouse embryonic fibroblasts, which can be invaded by outgrowing embryos (Fig. 6C and 6D). The effect of Gabexate on blastocyst outgrowth is also incremental with increasing concentration of Gabexate (Fig. 7B). […] A similar result was not observed for individual or combined mAbs, possibly owing to the abundance of ISP enzyme that occurs within the uterine fluid.
as §1

A further data set relates to embryo implantation. As to the kind of experiment: Effect on pregnancy after injection into the uterine lumen. The format is in vivo, CD1 mice. The conditions noted are these: for # pregnant / # embryos: 10 ul of 10 mM per uterine horn at 2.5 dpc, examined at 7.5 dpc; for Rate (%) of pregnancy: rate of pregnancy in Controls assumed as 100%. Here is the method:
CD1 mice were obtained at the age of 6–8 weeks from Charles River Canada (St. Constant, Quebec) and maintained in a standard laboratory animal facility with controlled temperature (20°C), humidity and light cycle (lights on between 0700 and 1900 hr). The maintenance and treatment of animals was in full compliance with the Standard laboratory animal care protocols approved by the University of Calgary Animal Care Committee. To obtain natural pregnancies, female mice were paired with adult males and checked daily for the presence of vaginal copulatory plugs, as an indication of mating. The day of plug detection is designated as day 0.5 post coetum. For collection of uteri and embryos, pregnant dams were sacrificed on a specific day by cervical dislocation.
Uterine horns were exposed surgically whereupon inhibitor or anti-ISP antibodies were injected into the uterine lumen using the minimum possible volume (10 μl fluid was injected per horn). Since Gabexate was dissolved in normal saline, the control mice were injected with normal saline solution.

The test system of data set [2] is hatched blastocysts. As to the kind of experiment: In vitro embryo outgrowth onto extracellular matrix. The format is cell-based.
The mark [3] stands for this setting: 4 mM BAPNA substrate, 25 mM Tris.Cl pH 8.0, room temperature, read-out: IC50%.
Setting [4] is: Expt 04, 0.1 mM, 6 embryos/drop, control 6.
Where [5] appears, read: Expt 04, 0.25 mM, 6 embryos/drop, control 6.
Setting [6] is: Expt 06, 0.01 mM, 5 embryos/drop, control 4.
Setting [7] is: Expt 06, 0.05 mM, 5 embryos/drop, control 4.
Setting [8] is: Expt 06, 0.1 mM, 5 embryos/drop, control 4.
The mark [9] stands for this setting: Expt 07, 0.1 mM, 5 embryos/drop, control 6 of 6.
[10] abbreviates: Expt 07, 0.5 mM, 6 embryos/drop, control 6.

T1 sequence (Q924N9 27-274): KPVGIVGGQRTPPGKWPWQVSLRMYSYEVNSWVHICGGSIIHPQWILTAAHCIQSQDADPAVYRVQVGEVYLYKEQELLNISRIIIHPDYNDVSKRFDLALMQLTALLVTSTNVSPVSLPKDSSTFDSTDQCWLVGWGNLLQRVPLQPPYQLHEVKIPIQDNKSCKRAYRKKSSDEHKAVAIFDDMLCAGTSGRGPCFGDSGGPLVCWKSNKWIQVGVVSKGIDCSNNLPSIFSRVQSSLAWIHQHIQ
T1 sequence (Q99MS4 18-279): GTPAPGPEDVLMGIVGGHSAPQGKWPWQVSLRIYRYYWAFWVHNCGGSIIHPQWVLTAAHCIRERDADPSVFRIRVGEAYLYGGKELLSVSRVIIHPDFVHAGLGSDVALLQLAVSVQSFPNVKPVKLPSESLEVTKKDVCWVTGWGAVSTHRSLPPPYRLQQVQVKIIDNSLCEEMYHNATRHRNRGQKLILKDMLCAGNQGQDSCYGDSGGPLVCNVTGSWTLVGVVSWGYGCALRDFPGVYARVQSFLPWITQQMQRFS

For the compound `N=C(N)c1ccc(CS(=O)(=O)F)cc1` [APMSF, 4-(Amidino-Phenyl)-Methane-Sulfonyl Fluoride], the IC50 on ISP1-ISP2 enzyme complex (setting [3]) was determined as 19500 µM. The Ki at ISP1-ISP2 enzyme complex (BAPNA substrate) is 5310 µM. Also, the “Influence on ISP activity” value on ISP1-ISP2 enzyme complex is listed as “inhibitory influence”.
For `N=C(N)c1ccc2[nH]c(Cc3nc4cc(C(=N)N)ccc4[nH]3)nc2c1` [BABIM, Bis (5-amidino-2-benzimadozolyl) methane], in the data set with blastocysts (setting [4]), the “Embryos hatched after 24 hrs.” value is given as 5 and the “Embryos hatched after 48 hrs.” value was 6. Further, in the data set on blastocysts (setting [5]), the “Embryos hatched after 24 hrs.” value was found to be 1 and the “Embryos hatched after 48 hrs.” value came to 1. In addition, in the data set on blastocysts (Expt 04, 0.5 mM, 6 embryos/drop, 24 hrs), the Embryo death result was “all died”. In the data set with blastocysts (Expt 04, 0.5 mM, 6 embryos/drop, control 6), the “Embryos hatched after 24 hrs.” value was 0. In addition, the IC50 at ISP1-ISP2 enzyme complex (setting [3]) came to 750 µM. At ISP1-ISP2 enzyme complex, the “Affinity for ISP enzyme” value is reported as “relatively high affinity” and the “Influence on ISP activity” value is on record as “inhibitory influence”. Further, at ISP1-ISP2 enzyme complex (BAPNA substrate), the Ki came to 204 µM.
With `N=C(N)c1ccccc1` [Benzamidine hydrochloride], the Embryo death entry in the data set with blastocysts (Expt 01, 50 mM, 12 embryos/drop, 24 hrs) is reported as “all died”; in the data set with blastocysts (Expt 02, 20 mM, 10 embryos/drop, 24 hrs) it was “all died”; in the data set with hatched blastocysts [1] (Experiment 01, 50 mM, 12 hatched embryos) it was “all died”; in the data set with hatched blastocysts [1] (Experiment 02, 4 mM, 10 hatched embryos), “all died”. Moreover, the “Embryos hatched after 24 hrs.” value worked out at 0 in the data set on blastocysts (Expt 01, 50 mM, 12 embryos/drop, control 9); 0 in the data set with blastocysts (Expt 02, 20 mM, 10 embryos/drop, control 5); 3 in the data set with blastocysts (Expt 03, 0.5 mM, 11 embryos/drop, control 5); 4 with blastocysts (Expt 03, 1 mM, 11 embryos/drop, control 5); 2 in the data set with blastocysts (Expt 03, 4 mM, 11 embryos/drop, control 5). Besides, the “Embryos hatched after 48 hrs.” value is on record as 4 in the data set on blastocysts (Expt 03, 0.5 mM, 11 embryos/drop, control 10); 7 with blastocysts (Expt 03, 1 mM, 11 embryos/drop, control 10); 2 with blastocysts (Expt 03, 4 mM, 11 embryos/drop, control 10). The “Embryos outgrown after 48 hrs.” value in the data set on hatched blastocysts [1] (Experiment 01, 50 mM, 12 hatched embryos, control 9) was 0; in the data set on hatched blastocysts [1] (Experiment 02, 4 mM, 10 hatched embryos, control 10) it was 0. On ISP1-ISP2 enzyme complex (BAPNA substrate), the Ki worked out at 44300 µM. Besides, the “Influence on ISP activity” value on ISP1-ISP2 enzyme complex is on record as “inhibitory influence”.
Turning to `CCOC(=O)c1ccc(OC(=O)CCCCCNC(=N)N)cc1` [Gabexate mesylate], the Embryo death entry is reported as “all died” in the data set with blastocysts (CD1, mouse, 24 h, 0.1 mM); “all died” with blastocysts (CD1, mouse, 24 h, 0.5 mM); “all died” in the data set on blastocysts (CD1, mouse, 24 h, 2 mM). Moreover, the “Embryos hatched after 24 hrs.” value in the data set on blastocysts (Expt 05, 0.1 mM, 6 embryos/drop, control 6) is 0; in the data set on blastocysts (Expt 05, 0.5 mM, 6 embryos/drop, control 6) it was 0; in the data set with blastocysts (Expt 05, 2.0 mM, 6 embryos/drop, control 6), 0; with blastocysts (setting [6]), 4; in the data set with blastocysts (setting [7]) it was 4; with blastocysts (setting [8]) it was 0. Besides, the “Embryos hatched after 24 hrs.” value is given as 0 in the data set with blastocysts (setting [9]); 0 in the data set on blastocysts (setting [10]); 3 in the data set on blastocysts (Expt 08, 0.1 mM, 16 embryos/drop, control 4 of 17); 1 with blastocysts (Expt 08, 0.5 mM, 17 embryos/drop, control 4). Also, the “Embryos hatched after 48 hrs.” value is 4 with blastocysts (setting [6]); 4 in the data set on blastocysts (setting [7]); 2 in the data set on blastocysts (setting [8]); 2 with blastocysts (setting [9]); 0 in the data set on blastocysts (setting [10]); 3 in the data set with blastocysts (Expt 08, 0.1 mM, 16 embryos/drop, control 12 of 17). In addition, in the data set with blastocysts (Expt 08, 0.5 mM, 17 embryos/drop, control 12), the “Embryos hatched after 48 hrs.” value was 3. Also, the “Effect on in vitro embryo hatching” value in the data set with blastocysts (compared to controls) is on record as “almost completely inhibited”. In addition, the “# pregnant” value is 1 in the data set on embryo implantation (group 1, 11 mice, Control 1: 6 of 6) and 1 in the data set with embryo implantation (group 2, 6 mice, Control 2: 4 of 4). In addition, the “# embryos” value in the data set on embryo implantation (group 1, 11 mice, Control 1: 72) is given as 2; with embryo implantation (group 2, 6 mice, Control 2: 22), 3. Further, the “Rate (%) of pregnancy” value in the data set with embryo implantation (group 1) is listed as 2.8%; in the data set on embryo implantation (group 2), 13.6%. The “Effect on embryo implantation in vivo” value with embryo implantation (injected into the uterine lumen at 2.5 dpc, compared with controls) is “rate of pregnancy drops to very low”. Moreover, the “Embryos outgrown after 72 hrs.” value in the data set with hatched blastocysts [2] (Experiment 03, 0.1 mM, 8 hatched embryos, control 7) is on record as 4; with hatched blastocysts [2] (Experiment 03, 0.5 mM, 8 hatched embryos, control 7) it was 2; in the data set on hatched blastocysts [2] (Experiment 04, 0.1 mM, 11 hatched embryos, control 9), 6; in the data set on hatched blastocysts [2] (Experiment 04, 0.5 mM, 11 hatched embryos, control 9), 2. Further, the “Embryos outgrown after 48 hrs.” value is 0 in the data set with hatched blastocysts [1] (Experiment 03, 0.1 mM, 8 hatched embryos, control 5); 1 in the data set on hatched blastocysts [1] (Experiment 03, 0.5 mM, 8 hatched embryos, control 5); 5 in the data set with hatched blastocysts [1] (Experiment 04, 0.1 mM, 11 hatched embryos, control 6); 1 in the data set with hatched blastocysts [1] (Experiment 04, 0.5 mM, 11 hatched embryos, control 6). In addition, the “Effect on in vitro embryo outgrowth” value with hatched blastocysts [1] (compared to controls) is given as “almost completely inhibited”. In addition, the IC50 at ISP1-ISP2 enzyme complex (setting [3]) stood at 1800 µM. Further, the “Affinity for ISP enzyme” value at ISP1-ISP2 enzyme complex is on record as “relatively high affinity”. Further, the Ki on ISP1-ISP2 enzyme complex (BAPNA substrate) was 490 µM. Also, the “Influence on ISP activity” value on ISP1-ISP2 enzyme complex is “inhibitory influence”.
In the case of `Cc1ccc(S(=O)(=O)N[C@@H](CCCCN)C(=O)CCl)cc1.Cl` [TLCK, L-1-chloro-3[4-tosyl-amido]-7-amino-2-heptanone-HCl], at ISP1-ISP2 enzyme complex (setting [3]), the half-maximal inhibitory concentration (IC50) came out at 8000 µM. For the same compound, the inhibition constant Ki at ISP1-ISP2 enzyme complex (BAPNA substrate) was determined as 2180 µM. Besides, the “Influence on ISP activity” value at ISP1-ISP2 enzyme complex is on record as “inhibitory influence”.
Turning to “UPTI: rPorcine Uterine Plasmin Trypsin Inhibitor”, the IC50 with ISP1-ISP2 enzyme complex (BAPNA substrate, no effect up to stated concentration, read-out: IC50% (No effect up to)) is more than 500000 µM.
